As a reminder, the IC50 is the concentration that gives 50% inhibition. A high value points to weaker potency.

These results are taken from US20140073634A1 (Institute For Applied Cancer Science/The University of …, priority 2012, published 2014).

For the test, the system named is 293T-HRE-GFP-luc cells. As to the kind of experiment: Cell-based reporter assay for IC50 determinations (HRE-luciferase, hypoxia). The note with it: 6 h, 6 hrs hypoxia (1% O2), luminescence. The protocol: Cell-Based Reporter Assay for IC50 Determinations
293T-HRE-GFP-luc cells were routinely maintained in DMEM media (high glucose version with GlutaMAX and HEPES, Gibco, catalog #10564) supplemented with 10% fetal bovine serum and 2 μg/mL puromycin (Invitrogen, catalog #A11138-03) using a humidified incubator (normoxia conditions consisting of 37° C., 5% CO2 and ambient O2).
In preparation for the reporter assay, cells were harvested and resuspended in DMEM media (high glucose version with GlutaMAX and HEPES) supplemented with 10% fetal bovine serum. Cells were inoculated into 384-well white Culturplates (Perkin Elmer catalog #6007680) at a density of 12,000 cells/well in a volume of […]. The microplates were incubated overnight (approximately 17-19 hours) at 37° C. with 5% CO2 and ambient O2. Stock solutions of the test compounds were prepared in DMSO (Sigma, Catalog #D2650) and serially diluted 1:3 using DMSO. Compounds were additionally diluted (1:50) with culturemedium and 10 µL were added per well to the Culturplate. Following a 30 min. incubation under normoxia conditions, the plates were incubated in hypoxia for 6 hrs. (37° C., 5% CO2 and 1% O2). Steadylite Plus (Perkin Elmer, catalog #6016751) was then added ([…]), the plates were mixed on an orbital shaker at room temperature in the dark for 15 min., and luminescence was measured using an Envision plate reader (Perkin Elmer). IC50 values were calculated using a four-parameter logistic curve fit. Results are shown below in Table 2; ND indicates no data.
Consider `NC(=O)c1cccc(Cn2cc(-c3nc(-c4ccc(OC(F)(F)F)cc4)no3)ccc2=O)c1` [Example 25, 3-((2-oxo-5-(3-(4-(trifluoromethoxy)phenyl)-1,2,4-oxadiazol-5-yl)pyridin-1(2H)-yl)methyl)benzamide], for which the IC50 was under 100 nM.

`Cc1ccc(Cn2cc(-c3nc(-c4ccc(OC(F)(F)F)cc4)no3)ccc2=O)cc1` [Example 26, 1-(4-Methylbenzyl)-5-(3-(4-(trifluoromethoxy)phenyl)-1,2,4-oxadiazol-5-yl)pyridin-2(1H)-one] gave an IC50 of under 100 nM. In the case of `Cc1ccc(-c2nnc(-c3ccc(OC(F)(F)F)cc3)o2)c(=O)n1Cc1ccnc(N2CCOCC2)c1` [Example 27, 6-Methyl-1-((2-morpholinopyridin-4-yl)methyl)-3-(5-(4-(trifluoromethoxy)phenyl)-1,3,4-oxadiazol-2-yl)pyridin-2(1H)-one], the IC50 lay in the range of 100 to 1000 nM. In the case of `Cc1ccc(-c2nnc(-c3ccc(OC(F)(F)F)cc3)o2)c(=O)n1Cc1ccnc(N2CCC(C#N)CC2)c1` [Example 28, 1-(4-((6-Methyl-2-oxo-3-(5-(4-(trifluoromethoxy)phenyl)-1,3,4-oxadiazol-2-yl)pyridin-1(2H)-yl)methyl)pyridin-2-yl)piperidine-4-carbonitrile] it was 100 to 1000 nM. In the case of `COC(=O)Cc1cccc(Cn2nc(-c3nc(-c4ccc(OC(F)(F)F)cc4)no3)ccc2=O)c1` [Example 29, Methyl 2-{3-[(6-oxo-3-{3-[4-(trifluoromethoxy)phenyl]-1,2,4-oxadiazol-5-yl}-1,6-dihydropyridazin-1-yl)methyl]phenyl}acetate] it was under 100 nM; in that of `COC(=O)C(C)(C)c1cccc(Cn2nc(-c3nc(-c4ccc(OC(F)(F)F)cc4)no3)ccc2=O)c1` [Example 30, Methyl 2-methyl-2-{3-[(6-oxo-3-{3-[4-(trifluoromethoxy)phenyl]-1,2,4-oxadiazol-5-yl}-1,6-dihydropyridazin-1-yl)methyl]phenyl}propanoate], under 100 nM. For the compound `O=c1ccc(-c2nc(-c3ccc(OC(F)(F)F)cc3)no2)cn1Cc1cccc(N2CCCC2)c1` [Example 31, 1-{[3-(Pyrrolidin-1-yl)phenyl]methyl}-5-{3-[4-(trifluoromethoxy)phenyl]-1,2,4-oxadiazol-5-yl}-1,2-dihydropyridin-2-one], the IC50 was under 100 nM. In the case of `O=c1ccc(-c2nc(-c3ccc(OC(F)(F)F)cc3)no2)cn1Cc1cccc(O)c1` [Example 32, 1-[(3-Hydroxyphenyl)methyl]-5-{3-[4-(trifluoromethoxy)phenyl]-1,2,4-oxadiazol-5-yl}-1,2-dihydropyridin-2-one] it was 100 to 1000 nM; in that of `COCCOc1cccc(Cn2cc(-c3nc(-c4ccc(OC(F)(F)F)cc4)no3)ccc2=O)c1` [Example 33, 1-{[3-(2-Methoxyethoxy)phenyl]methyl}-5-{3-[4-(trifluoromethoxy)phenyl]-1,2,4-oxadiazol-5-yl}-1,2-dihydropyridin-2-one], 100 to 1000 nM. Under `NCCOc1cccc(Cn2cc(-c3nc(-c4ccc(OC(F)(F)F)cc4)no3)ccc2=O)c1` [Example 34, 1-{[3-(2-Aminoethoxy)phenyl]methyl}-5-{3-[4-(trifluoromethoxy)phenyl]-1,2,4-oxadiazol-5-yl}-1,2-dihydropyridin-2-one] stands under 100 nM. Under `CN(C)S(=O)(=O)c1cccc(Cn2cc(-c3nc(-c4ccc(OC(F)(F)F)cc4)no3)ccc2=O)c1` [Example 35, N,N-Dimethyl-3-[(2-oxo-5-{3-[4-(trifluoromethoxy)phenyl]-1,2,4-oxadiazol-5-yl}-1,2-dihydropyridin-1-yl)methyl]benzene-1-sulfonamide] stands under 100 nM. Compound `CC(C)(C(=O)O)c1cccc(Cn2cc(-c3nc(-c4ccc(OC(F)(F)F)cc4)no3)ccc2=O)c1` [Example 36, 2-Methyl-2-{3-[(2-oxo-5-{3-[4-(trifluoromethoxy)phenyl]-1,2,4-oxadiazol-5-yl}-1,2-dihydropyridin-1-yl)methyl]phenyl}propanoic acid] came in with an IC50 of 100 to 1000 nM.

In turn, `CCCS(=O)(=O)c1cccc(Cn2cc(-c3nc(-c4ccc(OC(F)(F)F)cc4)no3)ccc2=O)c1` [Example 37, 1-{[3-(propane-1-sulfonyl)phenyl]methyl}-5-{3-[4-(trifluoromethoxy)phenyl]-1,2,4-oxadiazol-5-yl}-1,2-dihydropyridin-2-one] showed an IC50 of under 100 nM. Under `CC(C)(CO)c1cccc(Cn2cc(-c3nc(-c4ccc(OC(F)(F)F)cc4)no3)ccc2=O)c1` [Example 38, 1-{[3-(1-Hydroxy-2-methylpropan-2-yl)phenyl]methyl}-5-{3-[4-(trifluoromethoxy)phenyl]-1,2,4-oxadiazol-5-yl}-1,2-dihydropyridin-2-one] stands 100 to 1000 nM; under `CC(C)(O)c1cccc(Cn2cc(-c3nc(-c4ccc(OC(F)(F)F)cc4)no3)ccc2=O)c1` [Example 39, 1-{[3-(2-Hydroxypropan-2-yl)phenyl]methyl}-5-{3-[4-(trifluoromethoxy)phenyl]-1,2,4-oxadiazol-5-yl}-1,2-dihydropyridin-2-one], under 100 nM.

Consider `CN(C)C(=O)/C=C/c1cccc(Cn2cc(-c3nc(-c4ccc(OC(F)(F)F)cc4)no3)ccc2=O)c1` [Example 40, (2E)-N,N-dimethyl-3-{3-[(2-oxo-5-{3-[4-(trifluoromethoxy)phenyl]-1,2,4-oxadiazol-5-yl}-1,2-dihydropyridin-1-yl)methyl]phenyl}prop-2-enamide], for which the IC50 is under 100 nM. `CS(=O)(=O)C1CCN(c2cccc(Cn3cc(-c4nc(-c5ccc(OC(F)(F)F)cc5)no4)ccc3=O)c2)CC1` [Example 41, 1-{[3-(4-Methanesulfonylpiperidin-1-yl)phenyl]methyl}-5-{3-[4-(trifluoromethoxy)phenyl]-1,2,4-oxadiazol-5-yl}-1,2-dihydropyridin-2-one] registered an IC50 of under 100 nM. Under `O=c1ccc(-c2nc(-c3ccc(OC(F)(F)F)cc3)no2)cn1Cc1cccc(CCO)c1` [Example 42, 1-{[3-(2-Hydroxyethyl)phenyl]methyl}-5-{3-[4-(trifluoromethoxy)phenyl]-1,2,4-oxadiazol-5-yl}-1,2-dihydropyridin-2-one] stands under 100 nM. Under `O=c1ccc(-c2nc(-c3ccc(OC(F)(F)F)cc3)no2)cn1Cc1cccc(CO)c1` [Example 43, 1-{[3-(Hydroxymethyl)phenyl]methyl}-5-{3-[4-(trifluoromethoxy)phenyl]-1,2,4-oxadiazol-5-yl}-1,2-dihydropyridin-2-one] stands under 100 nM; under `CC(=O)SCc1cccc(Cn2cc(-c3nc(-c4ccc(OC(F)(F)F)cc4)no3)ccc2=O)c1` [Example 44, 1-({3-[(Acetylsulfanyl)methyl]phenyl}methyl)-5-{3-[4-(trifluoromethoxy)phenyl]-1,2,4-oxadiazol-5-yl}-1,2-dihydropyridin-2-one], under 100 nM; under `O=c1ccc(-c2nc(-c3ccc(OC(F)(F)F)cc3)no2)cn1Cc1cccc(CS)c1` [Example 45, 1-{[3-(Sulfanylmethyl)phenyl]methyl}-5-{3-[4-(trifluoromethoxy)phenyl]-1,2,4-oxadiazol-5-yl}-1,2-dihydropyridin-2-one], under 100 nM. Under `COC(=O)CCc1cccc(Cn2cc(-c3nc(-c4ccc(OC(F)(F)F)cc4)no3)ccc2=O)c1` [Example 46, Methyl 3-{3-[(2-oxo-5-{3-[4-(trifluoromethoxy)phenyl]-1,2,4-oxadiazol-5-yl}-1,2-dihydropyridin-1-yl)methyl]phenyl}propanoate] stands under 100 nM; under `O=C(O)CCc1cccc(Cn2cc(-c3nc(-c4ccc(OC(F)(F)F)cc4)no3)ccc2=O)c1` [Example 47, 3-{3-[(2-oxo-5-{3-[4-(trifluoromethoxy)phenyl]-1,2,4-oxadiazol-5-yl}-1,2-dihydropyridin-1-yl)methyl]phenyl}propanoic acid], 100 to 1000 nM; under `O=c1ccc(-c2nc(-c3ccc(OC(F)(F)F)cc3)no2)cn1Cc1cccc(CCCO)c1` [Example 48, 1-{[3-(3-Hydroxypropyl)phenyl]methyl}-5-{3-[4-(trifluoromethoxy)phenyl]-1,2,4-oxadiazol-5-yl}-1,2-dihydropyridin-2-one], under 100 nM. As to `CN(C)C(=O)CCc1cccc(Cn2cc(-c3nc(-c4ccc(OC(F)(F)F)cc4)no3)ccc2=O)c1` [Example 49, N,N-Dimethyl-3-{3-[(2-oxo-5-{3-[4-(trifluoromethoxy)phenyl]-1,2,4-oxadiazol-5-yl}-1,2-dihydropyridin-1-yl)methyl]phenyl}propanamide], the IC50 is under 100 nM. Under `CC(C)(O)c1cc(Cn2cc(-c3nc(-c4ccc(OC(F)(F)F)cc4)no3)ccc2=O)ccn1` [Example 50, 1-{[2-(2-Hydroxypropan-2-yl)pyridin-4-yl]methyl}-5-{3-[4-(trifluoromethoxy)phenyl]-1,2,4-oxadiazol-5-yl}-1,2-dihydropyridin-2-one] stands 100 to 1000 nM. In the case of `COCCOc1cc(Cn2cc(-c3nc(-c4ccc(OC(F)(F)F)cc4)no3)ccc2=O)ccn1` [Example 51, 1-{[2-(2-Methoxyethoxy)pyridin-4-yl]methyl}-5-{3-[4-(trifluoromethoxy)phenyl]-1,2,4-oxadiazol-5-yl}-1,2-dihydropyridin-2-one] it was 100 to 1000 nM.
